Data taken from publication PMC2346451 (PLoS ONE, 2008).
pKd: −log10 of the molar value.

How the values were obtained:
Type in all cases: cell-based
rat TRPV2 (rTRPV2) = target: T1, rat TRPV2 (rTRPV2) (Rattus norvegicus, UniProt Q9WUD2); test: Whole-cell patch clamp of rat TRPV2 expressed in HEK-293T cells; parameters: key to Agonist efficacy: Ø - not activated; conditions: for Increase of agonist-evoked current prior to onset of inhibition: citral 1 mM, n = 10
T1 construct: expressed in transfected cells; host or cells: HEK-293T
T1 sequence (Q9WUD2 1-761): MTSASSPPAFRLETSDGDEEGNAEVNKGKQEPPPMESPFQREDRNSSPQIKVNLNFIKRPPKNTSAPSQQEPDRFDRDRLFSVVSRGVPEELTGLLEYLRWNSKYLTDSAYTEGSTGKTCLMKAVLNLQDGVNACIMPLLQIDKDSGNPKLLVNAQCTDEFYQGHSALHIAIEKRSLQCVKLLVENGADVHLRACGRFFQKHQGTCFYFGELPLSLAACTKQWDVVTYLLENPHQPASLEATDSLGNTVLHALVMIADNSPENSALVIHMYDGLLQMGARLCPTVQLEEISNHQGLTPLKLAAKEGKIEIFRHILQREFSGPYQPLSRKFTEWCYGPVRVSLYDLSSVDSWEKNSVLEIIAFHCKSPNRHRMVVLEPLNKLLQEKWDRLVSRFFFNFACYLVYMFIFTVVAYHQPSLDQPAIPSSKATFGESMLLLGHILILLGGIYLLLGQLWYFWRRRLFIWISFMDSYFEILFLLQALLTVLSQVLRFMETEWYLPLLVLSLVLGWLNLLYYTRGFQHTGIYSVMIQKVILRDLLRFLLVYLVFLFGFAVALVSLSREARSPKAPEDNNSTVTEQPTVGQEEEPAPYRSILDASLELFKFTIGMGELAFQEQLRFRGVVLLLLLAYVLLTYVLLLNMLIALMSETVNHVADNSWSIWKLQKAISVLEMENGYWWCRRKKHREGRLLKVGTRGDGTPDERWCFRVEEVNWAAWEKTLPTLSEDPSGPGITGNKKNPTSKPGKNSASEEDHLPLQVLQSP
Protocol: (§1) Transformed human embryonic kidney-293 (HEK-293T) cells were grown in Dulbecco's modified Eagle's medium (DMEM)+F-12 supplemented with 10% fetal calf serum, and 1% penicillin/streptomycin in 5% CO2 at 37°C. Cells grown to 90% confluence in 35 mm Petri dishes were transiently transfected with plasmid DNA encoding a TRP channel construct (1 µg). Rat TRPV1 (rTRPV1) was cloned into an enhanced green fluorescent protein-containing vector (pTracer-CMV2; Invitrogen, Carlsbad, CA). Chicken TRPV1 (cTRPV1), the chicken rat TRPV1 chimera (crcTRPV1), rat TRPV2 (rTRPV2), mouse TRPV3 (mTRPV3), mouse TRPV4 (mTRPV4), rat TRPM8 (rTRPM8), and rat TRPA1 (rTRPA1), were cloned into pcDNA3 and co-transfected with enhanced green fluorescent protein (0.1 µg) to follow expression. The cTRPV1 and crcTRPV1 clones were kindly provided by Dr. David Julius. Recordings were carried out 24–36 hours after transfection. Cells were split via trypsin EDTA, plated on glass coverslips at 5–10% confluence, and used 2–3 hours later.
(§2) Electrophysiological experiments were performed using the whole-cell patch-clamp technique at room temperature. Modified Ringer's solution with low chloride and nominal calcium contained (in mM): 130 sodium hydroxide, 5 potassium chloride, 1 magnesium chloride, 10 sodium 4-(2-hydroxyethyl)-1-piperazineethanesulfonic acid, 10 2-(N-morpholino)ethanesulfonic acid, and 20 glucose (pH 7.4; 310 milli-osmolar). […] 2 mM calcium chloride was included in the external solution where noted. To activate TRPV1, the modified Ringer's solution was made at pH 5 (low pH solution) and the chloride concentration was kept to a minimum to prevent contamination of the TRPV1 currents with acid-activated chloride currents. For recordings from heterologously expressing cells, the internal pipette solution contained (in mM): 125 cesium-Methanesulfonate, 10 cesium (1.2-bis(o-aminophenoxy)ethane-N,N,N',N'-tetraacetic acid, 8 sodium chloride, 4 magnesium adenosine triphosphate, and 10 HEPES (pH 7.2; 290 mOSM; nominal free calcium concentrations). For TRPA1 and dorsal root ganglion recordings, the internal pipette solution contained (in mM): 110 cesium-Methanesulfonate, 0.5 cesium4BAPTA, 8 sodium chloride, 0.2 calcium chloride, 4 magnesium-ATP, 4 sodium-GTP, and 10 4-(2-hydroxyethyl)-1-piperazineethanesulfonic acid (pH 7.2; 290 mOSM; 100 nM free calcium internal). MaxChelator was used to calculate the free calcium concentration (http://www.stanford.edu/cpatton/maxc.html).
(§3) Recordings were obtained using an Axopatch 200B amplifier, Digidata 1322A analog-to-digital converter, and pClamp 8.01 software (Molecular Devices, Union City, CA). Data were low-pass filtered at 2 kHz and digitized at 5 kHz. Borosilicate glass pipettes (World Precision Instruments, Sarasota, FL) were typically 3 MΩ pipette resistance after fire polishing. Cell capacitance was measured for each cell, and access resistance compensated to ∼80%. Recordings were begun ∼5 minutes after initial rupture to ensure initial steady state conditions. Current-voltage (I-V) relations were obtained using a ramp protocol. Voltage ramps (400 ms) from −100 to +40 or +100 mV were applied every 1–2 seconds and the holding potential was either −70 mV or 0 mV (see Figure Legends). A 40 ms step was added at the beginning and end of the ramp (i.e. at −100 mV, +40 mV or +100 mV). Liquid junction potentials were not corrected.
(§4) The dose response curves were fit with the Hill equation, where [drawing 8] and [A] is the concentration of agonist or blocker, N is the Hill coefficient, and KD is the [A] for Imeasured/Imax = 0.5. The term apparent dissociation constant is used in place of the half concentration of excitation and inhibition. […] Averaged data are presented as mean±standard error (S.E.) throughout. Statistical analysis included paired and unpaired Student's t-test comparisons of the data; p values are reported in the text.

[1] = target: T2, rat TRPV1 tyrosine to alanine point mutant at residue 511 (Rattus norvegicus, UniProt O35433, Y511A); test: Patch clamp of capsaicin-insensitive rat TRPV1 point mutant; conditions: data not shown
T2 construct: expressed in transfected cells; host or cells: HEK-293T (inferred from the general methods)

rat TRPA1 (rTRPA1) = rat TRPA1 (rTRPA1) (Rattus norvegicus, UniProt Q6RI86); test: Whole-cell patch clamp of rat TRPA1 expressed in HEK-293T cells
Protocol: as §1, §2, §3, §4

Sequence of rat TRPA1 (rTRPA1) (Q6RI86 whole entry): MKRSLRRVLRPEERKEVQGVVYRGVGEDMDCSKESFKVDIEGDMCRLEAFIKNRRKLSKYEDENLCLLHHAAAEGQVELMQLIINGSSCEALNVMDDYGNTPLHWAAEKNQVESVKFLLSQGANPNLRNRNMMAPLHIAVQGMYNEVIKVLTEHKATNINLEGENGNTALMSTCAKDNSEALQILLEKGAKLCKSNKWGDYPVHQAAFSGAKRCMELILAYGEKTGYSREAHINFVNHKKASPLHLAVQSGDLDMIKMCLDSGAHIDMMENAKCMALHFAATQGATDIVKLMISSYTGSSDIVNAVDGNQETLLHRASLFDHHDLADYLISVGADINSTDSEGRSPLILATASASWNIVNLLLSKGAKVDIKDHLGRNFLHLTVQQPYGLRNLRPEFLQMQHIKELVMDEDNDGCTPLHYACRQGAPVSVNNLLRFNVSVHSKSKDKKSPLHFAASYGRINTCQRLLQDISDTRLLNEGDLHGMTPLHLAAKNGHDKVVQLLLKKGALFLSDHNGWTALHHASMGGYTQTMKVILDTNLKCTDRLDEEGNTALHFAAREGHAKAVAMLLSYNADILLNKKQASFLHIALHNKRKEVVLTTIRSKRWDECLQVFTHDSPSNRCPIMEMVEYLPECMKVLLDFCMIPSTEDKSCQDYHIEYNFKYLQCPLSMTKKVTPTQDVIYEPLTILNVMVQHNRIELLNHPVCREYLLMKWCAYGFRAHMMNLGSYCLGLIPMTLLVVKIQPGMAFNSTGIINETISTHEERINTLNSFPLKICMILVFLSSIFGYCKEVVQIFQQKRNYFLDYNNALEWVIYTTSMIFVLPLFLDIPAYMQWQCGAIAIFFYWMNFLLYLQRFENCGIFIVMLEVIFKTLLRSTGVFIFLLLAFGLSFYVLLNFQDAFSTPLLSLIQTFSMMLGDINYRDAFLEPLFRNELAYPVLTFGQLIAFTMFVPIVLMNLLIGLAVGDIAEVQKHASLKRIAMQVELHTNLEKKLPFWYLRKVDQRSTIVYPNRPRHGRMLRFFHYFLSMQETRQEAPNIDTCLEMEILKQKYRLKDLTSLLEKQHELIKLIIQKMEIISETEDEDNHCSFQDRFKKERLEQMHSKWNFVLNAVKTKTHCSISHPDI
T2 sequence (O35433 whole entry Y511A): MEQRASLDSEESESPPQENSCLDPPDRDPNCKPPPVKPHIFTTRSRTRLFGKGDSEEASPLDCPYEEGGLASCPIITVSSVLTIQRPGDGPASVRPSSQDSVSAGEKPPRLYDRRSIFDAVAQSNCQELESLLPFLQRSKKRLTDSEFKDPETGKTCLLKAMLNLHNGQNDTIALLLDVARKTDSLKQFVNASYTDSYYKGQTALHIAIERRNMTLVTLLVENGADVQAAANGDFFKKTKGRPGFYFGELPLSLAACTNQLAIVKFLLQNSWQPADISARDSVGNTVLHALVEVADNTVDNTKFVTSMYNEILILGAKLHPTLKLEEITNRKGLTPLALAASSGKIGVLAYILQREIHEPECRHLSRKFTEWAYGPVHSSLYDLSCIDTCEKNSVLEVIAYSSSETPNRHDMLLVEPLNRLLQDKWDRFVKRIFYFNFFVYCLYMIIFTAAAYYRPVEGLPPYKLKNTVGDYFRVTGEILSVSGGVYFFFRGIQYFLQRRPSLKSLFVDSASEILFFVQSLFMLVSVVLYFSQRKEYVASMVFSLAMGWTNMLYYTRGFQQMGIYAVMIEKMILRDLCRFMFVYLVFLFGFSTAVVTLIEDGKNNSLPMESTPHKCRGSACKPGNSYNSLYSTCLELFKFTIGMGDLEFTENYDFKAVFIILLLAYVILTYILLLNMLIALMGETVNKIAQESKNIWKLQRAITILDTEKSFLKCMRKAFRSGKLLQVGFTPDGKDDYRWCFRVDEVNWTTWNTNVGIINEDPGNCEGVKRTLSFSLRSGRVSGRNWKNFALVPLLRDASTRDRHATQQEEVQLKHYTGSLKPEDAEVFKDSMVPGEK

CC(C)=CCCC(C)=CC=O [citral, 3,7-dimethyl-2,6-octadienal]
Agonist efficacy (rat TRPV2 (rTRPV2)): Ø | Reversibility of citral inhibition of agonist-evoked current (rat TRPV2 (rTRPV2)): essentially irreversible | Increase of agonist-evoked current prior to onset of inhibition (rat TRPV2 (rTRPV2); +100 mV): 2.2±0.2 fold | Increase of agonist-evoked current prior to onset of inhibition (rat TRPV2 (rTRPV2); −100 mV): 2.5±0.4 fold | Hill coefficient (inhibition) (rat TRPV2 (rTRPV2); citral block of 2-aminoethyldiphenyl borate-evoked current): 2.4 | pKd (rat TRPV2 (rTRPV2); read-out: Inhibition KD, app): 3.27 | Response of capsaicin-insensitive TRPV1 point mutant [1]: remained responsive to citral | Reversibility of citral inhibition of agonist-evoked current (rat TRPA1 (rTRPA1); allyl isothiocyanate-evoked): rapidly reversed | Effect of citral addition on agonist-induced current (rat TRPA1 (rTRPA1); allyl isothiocyanate-induced, n = 10): not increased | TRPA1 current activation by allyl isothiocyanate recovered after citral washout (rat TRPA1 (rTRPA1); at 30s, n = 5): 60±16% | Activation threshold (rat TRPA1 (rTRPA1); citral activation, bell-shaped dose response, 2 mM external calcium): threshold ∼200 µM | Hill coefficient (inhibition) (rat TRPA1 (rTRPA1); citral block of allyl isothiocyanate-evoked current): 1.0 | Agonist efficacy IAITC (300 µM)/Icitral (300 µM) (rat TRPA1 (rTRPA1); fold larger, −100 mV, n = 27 and 9): IAITC (300 µM)/Icitral (300 µM) 1.5 fold larger (n = 27 and 9; −100 mV) | pKd (rat TRPA1 (rTRPA1); read-out: Inhibition KD, app): 3.60 | Increase of ITRPA1 above baseline (rat TRPA1 (rTRPA1); −100 mV): 3.1±0.8 fold
